For one assay, the system named is T-cell. Nature of the assay: Inhibition of anti-CD3/anti-CD28-induced IL2 secretion in human CD4+ T cells.
In assay [1] the target is T1, Tyrosine-protein kinase ITK/TSK (Homo sapiens, UniProt Q08881).
T1 sequence (Q08881 whole entry): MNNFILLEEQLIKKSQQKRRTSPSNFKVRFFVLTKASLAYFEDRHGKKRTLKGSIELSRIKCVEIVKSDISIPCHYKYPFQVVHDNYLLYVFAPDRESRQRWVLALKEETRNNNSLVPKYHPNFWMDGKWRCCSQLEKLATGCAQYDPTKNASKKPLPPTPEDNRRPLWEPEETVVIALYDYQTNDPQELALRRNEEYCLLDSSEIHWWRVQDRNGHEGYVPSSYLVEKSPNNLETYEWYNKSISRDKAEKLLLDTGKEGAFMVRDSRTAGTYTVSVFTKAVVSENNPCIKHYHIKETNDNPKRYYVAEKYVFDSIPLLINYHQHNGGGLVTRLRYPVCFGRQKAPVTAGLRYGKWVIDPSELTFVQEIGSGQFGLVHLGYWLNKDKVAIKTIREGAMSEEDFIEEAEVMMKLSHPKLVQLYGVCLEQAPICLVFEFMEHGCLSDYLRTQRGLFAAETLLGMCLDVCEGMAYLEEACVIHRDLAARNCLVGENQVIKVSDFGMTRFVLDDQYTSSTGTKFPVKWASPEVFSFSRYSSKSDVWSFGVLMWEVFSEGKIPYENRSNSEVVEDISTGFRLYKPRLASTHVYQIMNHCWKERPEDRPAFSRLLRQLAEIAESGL
Put plainly: Inhibition of ITK by DELFIA assay.

Assay [2] can be described thus: Inhibition of anti-CD3-induced IL2 secretion in mouse TH1 cells.
Assay [3] has as its target T1, Tyrosine-protein kinase ITK/TSK. Nature of the assay: Inhibition of human ITK expressed in chicken DT40 cells assessed as B cell receptor-stimulated calcium influx by FLIPR assay. The format is cell-based.
For the next assay, the target named is Insulin receptor (Homo sapiens, UniProt P06213). Put plainly: Inhibition of IRK.
Sequence of Insulin receptor (P06213 28-758 limits assumed): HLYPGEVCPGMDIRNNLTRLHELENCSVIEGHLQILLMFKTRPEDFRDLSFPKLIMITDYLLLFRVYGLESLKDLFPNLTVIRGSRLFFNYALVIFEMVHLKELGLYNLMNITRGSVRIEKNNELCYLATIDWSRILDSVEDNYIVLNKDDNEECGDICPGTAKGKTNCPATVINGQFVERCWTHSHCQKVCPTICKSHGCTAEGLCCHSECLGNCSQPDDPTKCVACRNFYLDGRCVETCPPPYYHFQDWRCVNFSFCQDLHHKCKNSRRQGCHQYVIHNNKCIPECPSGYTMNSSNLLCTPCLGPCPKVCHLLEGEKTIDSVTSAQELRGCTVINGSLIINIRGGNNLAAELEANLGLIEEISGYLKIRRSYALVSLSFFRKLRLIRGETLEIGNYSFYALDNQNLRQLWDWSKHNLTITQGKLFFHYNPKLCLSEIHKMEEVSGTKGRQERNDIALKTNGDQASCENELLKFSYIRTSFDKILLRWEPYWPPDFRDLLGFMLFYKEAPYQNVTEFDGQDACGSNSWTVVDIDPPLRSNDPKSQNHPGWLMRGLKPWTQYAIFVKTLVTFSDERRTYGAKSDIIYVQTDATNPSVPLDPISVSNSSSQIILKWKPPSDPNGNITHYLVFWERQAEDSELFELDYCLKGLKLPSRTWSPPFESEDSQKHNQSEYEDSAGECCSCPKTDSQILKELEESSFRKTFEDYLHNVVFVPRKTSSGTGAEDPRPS
Sequence of Insulin receptor (P06213 763-1382 limits assumed): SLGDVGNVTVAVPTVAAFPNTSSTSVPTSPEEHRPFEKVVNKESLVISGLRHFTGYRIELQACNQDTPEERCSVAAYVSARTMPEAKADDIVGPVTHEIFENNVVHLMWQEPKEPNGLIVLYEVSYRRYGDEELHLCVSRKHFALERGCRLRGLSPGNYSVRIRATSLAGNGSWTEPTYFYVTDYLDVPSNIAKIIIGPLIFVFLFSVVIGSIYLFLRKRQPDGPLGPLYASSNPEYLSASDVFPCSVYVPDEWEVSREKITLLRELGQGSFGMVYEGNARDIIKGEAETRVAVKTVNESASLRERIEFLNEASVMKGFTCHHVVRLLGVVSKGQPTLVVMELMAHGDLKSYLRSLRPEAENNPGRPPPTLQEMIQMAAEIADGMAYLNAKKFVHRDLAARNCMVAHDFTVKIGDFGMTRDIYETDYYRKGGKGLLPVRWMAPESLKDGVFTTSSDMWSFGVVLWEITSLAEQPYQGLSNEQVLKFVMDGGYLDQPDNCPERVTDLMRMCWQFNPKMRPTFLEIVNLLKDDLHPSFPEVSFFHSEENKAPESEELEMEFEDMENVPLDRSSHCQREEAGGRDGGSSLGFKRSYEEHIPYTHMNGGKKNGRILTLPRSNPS
Assay [4] deals with Tyrosine-protein kinase SYK (Homo sapiens) (UniProt P43405). Put plainly: Inhibition of Syk.
The target in assay [5] is Tyrosine-protein kinase Lyn (Homo sapiens) (UniProt P07948). Put plainly: Inhibition of Lyn kinase.
Sequence of Tyrosine-protein kinase Lyn (Homo sapiens) (P07948 2-512 limits assumed): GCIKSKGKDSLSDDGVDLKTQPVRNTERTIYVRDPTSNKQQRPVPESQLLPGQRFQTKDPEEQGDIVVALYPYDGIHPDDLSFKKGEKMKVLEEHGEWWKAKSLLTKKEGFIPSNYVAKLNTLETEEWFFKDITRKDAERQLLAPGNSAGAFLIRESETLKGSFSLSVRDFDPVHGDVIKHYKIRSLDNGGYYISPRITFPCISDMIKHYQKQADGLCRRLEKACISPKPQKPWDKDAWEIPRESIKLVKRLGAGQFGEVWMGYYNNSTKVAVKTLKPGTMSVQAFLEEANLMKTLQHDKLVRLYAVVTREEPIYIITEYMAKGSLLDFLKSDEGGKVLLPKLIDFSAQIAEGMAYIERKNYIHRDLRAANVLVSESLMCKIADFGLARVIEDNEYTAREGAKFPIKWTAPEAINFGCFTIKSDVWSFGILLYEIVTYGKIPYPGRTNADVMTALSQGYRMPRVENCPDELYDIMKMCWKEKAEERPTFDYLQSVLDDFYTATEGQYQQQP
Assay [6] deals with Tyrosine-protein kinase BTK (Homo sapiens) (UniProt Q06187). Put plainly: Inhibition of Btk.
Sequence of Tyrosine-protein kinase BTK (Homo sapiens) (Q06187 whole entry): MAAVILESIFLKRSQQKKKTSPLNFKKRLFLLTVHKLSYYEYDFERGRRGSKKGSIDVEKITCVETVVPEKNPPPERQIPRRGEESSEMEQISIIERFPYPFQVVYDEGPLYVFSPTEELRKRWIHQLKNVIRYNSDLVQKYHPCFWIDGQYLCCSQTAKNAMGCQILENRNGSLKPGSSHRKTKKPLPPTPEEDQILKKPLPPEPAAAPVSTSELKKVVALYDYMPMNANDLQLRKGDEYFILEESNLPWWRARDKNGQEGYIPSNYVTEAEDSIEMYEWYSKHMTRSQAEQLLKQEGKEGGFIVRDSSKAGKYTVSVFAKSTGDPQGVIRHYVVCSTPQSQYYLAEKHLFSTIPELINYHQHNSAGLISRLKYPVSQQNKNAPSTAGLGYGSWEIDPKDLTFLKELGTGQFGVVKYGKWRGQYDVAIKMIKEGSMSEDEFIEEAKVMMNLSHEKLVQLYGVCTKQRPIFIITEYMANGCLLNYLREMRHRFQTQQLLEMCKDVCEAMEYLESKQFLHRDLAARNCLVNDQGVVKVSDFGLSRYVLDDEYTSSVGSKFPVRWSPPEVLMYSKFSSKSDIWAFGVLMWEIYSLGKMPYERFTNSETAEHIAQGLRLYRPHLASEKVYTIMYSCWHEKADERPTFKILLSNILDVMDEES
A further assay deals with Splenocyte. Put plainly: Inhibition of anti-CD3-induced IL2 secretion in mouse splenocytes.
The test system of another assay is Mus musculus. Nature of the assay: Inhibition of anti-CD3-induced IL2 production in sc dosed mouse. The class given is functional, organism-based.

Our source for the IC50 and Activity values is ChEMBL document CHEMBL1142468, “Discovery, SAR and X-ray structure of 1H-benzimidazole-5-carboxylic acid cyclohexyl-methyl-amides as inhibitors of inducible T-cell kinase (Itk)” (Bioorg Med Chem Lett, 2008).

Active and inactive are the calls of the source. The calls are words filed in the database; no cut-off is given here. Where only a bound is given, the exact number is not on record here.

`CN(C(=O)C1CCCCC1)c1ccc2c(c1)nc(NC(=O)c1ccc(C#N)cc1)n2CCCn1ccnc1`: the half-maximal inhibitory concentration (IC50) was found to be 650 nM with T-cell, 4 nM in assay [1], 350 nM in assay [2] and 510 nM in assay [3]. The molecule `COCCCn1c(NC(=O)c2ccc(C#N)cc2)nc2cc(N(C)C(=O)C3CCCCC3)ccc21` registered an IC50 in [1] of 16 nM.

As to `CN(C(=O)C1CCCCC1)c1ccc2c(c1)nc(NC(=O)c1cccc(Br)c1)n2CCC(N)=O`, the results for the half-inhibitory concentration (IC50) (in assay [1]; at Insulin receptor) were 9 nM and 95 nM, respectively. Turning to `CCCCCCCn1c(NC(=O)c2ccc(C#N)cc2)nc2cc(N(C)C(=O)C3CCCCC3)ccc21`, half-maximal inhibition in assay [1] (IC50) was put at 4500 nM.

`CN(C(=O)C1CCCCC1)c1ccc2c(c1)nc(N)n2CCC(N)=O`: the IC50 in assay [1] was above 20000 nM. Molecule `CC(C)n1c(NC(=O)c2ccc(C#N)cc2)nc2cc(N(C)C(=O)C3CCCCC3)ccc21` registered a half-inhibitory concentration (IC50) in assay [1] of 35 nM. Take `CNC(=O)c1ccc(C(=O)Nc2nc3cc(N(C)C(=O)C4CCCCC4)ccc3n2CCC(N)=O)cc1`: in assay [1], the IC50 turned out to be 1800 nM. For the molecule `CN(C(=O)C1CCCCC1)c1ccc2c(c1)nc(NC(=O)c1cccs1)n2CCC(N)=O`, the outcome in [4], in assay [5] and in assay [6] was inactive. On to `CNC(=O)CCn1c(NC(=O)c2ccc(C#N)cc2)nc2cc(N(C)C(=O)C3CCCCC3)ccc21`, for which the half-inhibitory concentration (IC50) in assay [1] was found to be 9 nM.

`CN(C(=O)C1CCCCC1)c1ccc2c(c1)nc(NC(=O)c1cccc(C#N)c1)n2CCC(N)=O` returned an IC50 on Insulin receptor of 125 nM. Regarding `COc1cccc(C(=O)Nc2nc3cc(N(C)C(=O)C4CCCCC4)ccc3n2CCC(N)=O)c1`, on Insulin receptor, the half-maximal inhibitory concentration (IC50) came to 550 nM. In turn, `CNc1ccc2c(c1)nc(NC(=O)c1ccc(C#N)cc1)n2CCC(N)=O` yielded a half-inhibitory concentration (IC50) in assay [1] of 76 nM. For `COc1ccc(C(=O)Nc2nc3cc(N(C)C(=O)C4CCCCC4)ccc3n2CCC(N)=O)cc1`, on Insulin receptor, the concentration for half-maximal inhibition (IC50) is above 10000 nM. In assay [1], `CN(C(=O)C1CCCCC1)c1ccc2c(c1)nc(NC(=O)c1ccc(C#N)cc1)n2CC(N)=O` registered an IC50 of 73 nM. For `CN(C(=O)C1CCCCC1)c1ccc2c(c1)nc(NC(=O)c1ccc(Cl)cc1)n2CCC(N)=O`, the IC50 was 4100 nM in the assay on T-cell, 440 nM in assay [2] and 520 nM in the assay with Splenocyte. `Cc1ccc(C(=O)Nc2nc3cc(N(C)C(=O)C4CCCCC4)ccc3n2CCC(N)=O)cc1` showed an IC50 at Insulin receptor above 10000 nM. The molecule `CN(C(=O)C1CCCCC1)c1ccc2c(c1)nc(CC(=O)c1ccc(Cl)cc1)n2CCc1ccccc1` had a half-maximal inhibitory concentration (IC50) in assay [1] above 20000 nM.

In assay [1], `CC(C)C(=O)N(C)c1ccc2c(c1)nc(NC(=O)c1ccc(C#N)cc1)n2CCC(N)=O` registered an IC50 of 220 nM.

For the molecule `CC(=O)N1CCN(C(=O)c2cc(CSc3cnc(NC(=O)c4ccc(CNC(C)C(C)(C)C)cc4)s3)cc(C)c2C)CC1` (stereo not drawn), the Activity result in the assay with Mus musculus is “Dose-dependent effect”. As for `CN(C(=O)C1CCCCC1)c1ccc2c(c1)nc(NC(=O)c1ccc(C#N)cc1)n2CCc1ccc(Cl)cc1Cl`, half-maximal inhibition in [1] (IC50) was put at 2000 nM.

`CN(C(=O)C1CCCCC1)c1ccc2c(c1)nc(NC(=O)c1ccc(Br)cc1)n2CCC(N)=O`: the values for the IC50 (in assay [1]; on Insulin receptor) were 3 nM and above 10000 nM, respectively.

Turning to `CC(=O)c1ccc(C(=O)Nc2nc3cc(N(C)C(=O)C4CCCCC4)ccc3n2CCC(N)=O)cc1`, the IC50 against Insulin receptor is above 10000 nM. In turn, `Cc1cccc(C(=O)Nc2nc3cc(N(C)C(=O)C4CCCCC4)ccc3n2CCC(N)=O)c1` showed a 50% inhibitory concentration (IC50) against Insulin receptor of 550 nM. The molecule `CC(C(=O)C1CCCCC1)c1ccc2c(c1)nc(CC(=O)c1ccc(C#N)cc1)n2CCC(N)=O` (stereo not drawn) had an IC50 in assay [1] of 3 nM.

For orientation: IC50 means the concentration at which inhibition is half-maximal.
